Data as given in patent US10022461B2, “Pyrrolo[2,3-C]pyridines as imaging agents for neurofibrilary tangles” (MERCK SHARP & DOHME CORP., priority 2014, dated 2018).

Target: tau (Homo sapiens, UniProt P10636)
Assay: displacement tau binding assay in AD brain homogenates with [^3H]-6
Method: The frozen human brain samples of Alzheimer's disease (AD) were purchased from Analytic Biological Services Inc. They were postmortem tissue from donors with clinical diagnosis of AD. As much of the white matter was dissected out of the frontal cortex in order to enrich the tissue preparations for gray matter. Brain homogenates of gray matter enriched frontal cortex were prepared by homogenizing the tissue in ice cold Phosphate Buffered Saline (PBS), pH 7.4 at 80 mg wet weight tissue per 1 mL for 45 seconds at 4° C. on setting 16 of Polytron. The homogenate was further diluted with ice cold PBS to 30 mg wet weight tissue per 1 mL and homogenized for an additional minute as described above. Homogenates were aliquoted in 5 ml/tube and store at −70° C. until use. […] Brain homogenates were diluted to 0.5 mg/mL from original 30 mg/mL volume in Assay Buffer, and 200 μl were added to the assay plate for a final concentration of 100 μg wet weight/assay tube. [^3H]-6 was prepared at […] final concentration in Assay Buffer plus 20% DMSO and 25 μl was added to the assay plate for final assay concentration of 0.25 nM. The assay plate was incubated at room temperature (25° C.) for 90 minutes. […] Filter plates were dried for 1 hour in a vacuum oven and 50 μl/well MicroScint-20 were added. Plates were counted 1 min per well by Packard Topcount. Total amount of radioligand used in the assay was determined by counting 25 μl of 10× ligand stock. […] Tau Ki data for representative compounds of the invention are found in Table 1.

[1] = Table 2, displacement of [^3H]-6 (0.25 nM)
[2] = Table 1, displacement of [^3H]-6 (0.25 nM)

Chain of tau (P10636 2-758 limits assumed): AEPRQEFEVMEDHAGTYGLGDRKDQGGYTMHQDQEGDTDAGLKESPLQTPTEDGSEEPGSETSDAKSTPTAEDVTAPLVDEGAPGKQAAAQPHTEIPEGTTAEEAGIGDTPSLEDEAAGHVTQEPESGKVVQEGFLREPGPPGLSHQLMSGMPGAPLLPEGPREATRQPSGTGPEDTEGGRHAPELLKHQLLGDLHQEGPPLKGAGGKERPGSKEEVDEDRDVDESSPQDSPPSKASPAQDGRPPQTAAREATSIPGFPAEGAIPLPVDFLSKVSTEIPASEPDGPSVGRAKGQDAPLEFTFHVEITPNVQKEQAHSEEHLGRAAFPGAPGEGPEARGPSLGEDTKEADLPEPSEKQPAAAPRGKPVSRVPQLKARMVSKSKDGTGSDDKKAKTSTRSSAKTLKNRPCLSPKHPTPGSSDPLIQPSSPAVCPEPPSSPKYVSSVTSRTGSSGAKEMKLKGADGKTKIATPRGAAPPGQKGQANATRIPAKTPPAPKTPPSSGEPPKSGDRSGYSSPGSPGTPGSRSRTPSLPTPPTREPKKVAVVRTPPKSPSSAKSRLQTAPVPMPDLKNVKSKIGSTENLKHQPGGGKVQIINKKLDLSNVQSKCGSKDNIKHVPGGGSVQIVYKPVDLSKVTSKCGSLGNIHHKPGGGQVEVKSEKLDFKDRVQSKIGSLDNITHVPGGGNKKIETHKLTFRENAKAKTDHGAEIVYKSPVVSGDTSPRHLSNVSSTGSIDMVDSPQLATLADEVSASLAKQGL

Q: For `Nc1ccc(F)c2cc(-n3ccc4ccncc43)ncc12` [Compound 117], which Ki [1] is on record?
A: 2 nM

Q: With `Nc1c(I)ccc2cc(-n3ccc4ccncc43)ncc12` [Compound 121] as the molecule, how does the Ki [1] read?
A: 0.512 nM

Q: Which Ki [2] does the source give for `COc1cccc2cc(-n3ccc4ccncc43)ncc12` [Compound 103] here?
A: 0.32 nM

Q: Which Ki [2] does the source give for `COc1ccc2cc(-n3ccc4ccncc43)ncc2c1` [Compound 13, 7-methoxy-3-(1H-pyrrolo[2,3-c]pyridin-1-yl)isoquinoline] here?
A: 0.29 nM

Q: How did the Ki [2] turn out when `Fc1ccc2cnc(-n3ccc4ccncc43)cc2n1` [Compound 40, 2-fluoro-7-(1H-pyrrolo[2,3-c]pyridin-1-yl)-1,6-naphthyridine] was run?
A: 52.7 nM

Q: `Cn1cnc(-c2ccc(-n3ccc4ccncc43)nc2)c1` [Compound 65] was tested. Which Ki [2] did it give?
A: 3.42 nM

Q: How did the Ki [2] turn out when `FCOc1cccc2cc(-n3ccc4ccncc43)ncc12` [Compound 55] was run?
A: 1.14 nM

Q: Which Ki [2] does the source give for `Nc1c(F)ccc2cnc(-n3ccc4ccncc43)cc12` [Compound 18, 6-fluoro-3-(1H-pyrrolo[2,3-c]pyridin-1-yl)isoquinolin-5-amine] here?
A: 0.43 nM

Q: For `Nc1cc(I)cc2cc(-n3ccc4ccncc43)ncc12` [Compound 124], which Ki [1] is on record?
A: 1.07 nM

Q: With `FCCOc1ccc2nc(-n3ccc4ccncc43)ncc2c1` [Compound 69] as the molecule, how does the Ki [2] read?
A: 9.33 nM

Q: Which Ki [2] does the source give for `c1ccc2cc(-n3ccc4ccncc43)ncc2c1` [Compound 6, 3-(1H-pyrrolo[2,3-c]pyridin-1-yl)isoquinoline] here?
A: 0.54 nM

Q: With `Oc1ccc2cnc(-n3ccc4ccncc43)cc2c1` [Compound 75] as the molecule, how does the Ki [2] read?
A: 0.48 nM

Q: With `FCCOc1cccc2cnc(-n3ccc4ccncc43)cc12` [Compound 71] as the molecule, how does the Ki [2] read?
A: 172 nM

Q: For `Nc1ccc(F)c2cnc(-n3ccc4ccncc43)cc12` [Compound 116], which Ki [1] is on record?
A: 1.28 nM

Q: `COc1cc2ccn(-c3cc4cc(F)ccc4cn3)c2cn1` [Compound 130] was tested. Which Ki [1] did it give?
A: 4.03 nM

Q: For `CN(C)c1ccc(-c2ccc(-n3ccc4ccncc43)nc2)cn1` [Compound 95], which Ki [2] is on record?
A: 0.96 nM

Q: With `Nc1cc2cc(-n3ccc4ccncc43)ncc2cc1I` [Compound 126] as the molecule, how does the Ki [1] read?
A: 0.18 nM

Q: For `CNc1cccc(-c2ccc(-n3ccc4ccncc43)nc2)c1` [Compound 72], which Ki [2] is on record?
A: 0.76 nM

Q: How did the Ki [2] turn out when `FCCOc1cccc2cc(-n3ccc4ccncc43)ncc12` [Compound 67] was run?
A: 6.75 nM

Q: With `c1cc(-c2ccc(-n3ccc4ccncc43)nc2)ncn1` [Compound 46, 1-(5-(pyrimidin-4-yl)pyridin-2-yl)-1H-pyrrolo[2,3-c]pyridine] as the molecule, how does the Ki [2] read?
A: 2.19 nM

Q: How did the Ki [1] turn out when `Nc1cc(I)cc2cnc(-n3ccc4ccncc43)cc12` [Compound 127] was run?
A: 1.17 nM

Q: `COc1ccc2nc(-n3ccc4ccncc43)ncc2c1` [Compound 24-4, 6-methoxy-2-(1H-pyrrolo[2,3-c]pyridin-1-yl)quinazoline] was tested. Which Ki [2] did it give?
A: 1.55 nM

Q: With `Nc1ccc2cc(-n3ccc4ccncc43)ncc2c1` [Compound 12, 3-(1H-pyrrolo[2,3-c]pyridin-1-yl)isoquinolin-7-amine] as the molecule, how does the Ki [2] read?
A: 0.29 nM

Q: `FCCNc1ccc(-n2ccc3ccncc32)nc1` [Compound 36, N-(2-fluoroethyl)-6-(1H-pyrrolo[2,3-c]pyridin-1-yl)pyridin-3-amine] was tested. Which Ki [2] did it give?
A: 4.96 nM

Q: How did the Ki [1] turn out when `Nc1ccc2cnc(-n3ccc4ccncc43)cc2c1I` [Compound 118] was run?
A: 24.5 nM

Q: `CC#Cc1cnc(-n2ccc3ccncc32)cc1OC` [Compound 33, 1-(4-methoxy-5-(prop-1-ynyl)pyridin-2-yl)-1H-pyrrolo[2,3-c]pyridine] was tested. Which Ki [2] did it give?
A: 3.34 nM

Q: `Nc1cccc2cc(-n3ccc4ccncc43)ncc12` [Compound 59] was tested. Which Ki [2] did it give?
A: 0.33 nM

Q: Which Ki [2] does the source give for `Nc1ccc(-c2ccc(-n3ccc4ccncc43)nc2)cn1` [Compound 100] here?
A: 1.06 nM

Q: How did the Ki [2] turn out when `Fc1cc(-c2ccc(-n3ccc4ccncc43)nc2)ccn1` [Compound 44, 1-(6′-fluoro-3,4′-bipyridin-6-yl)-1H-pyrrolo[2,3-c]pyridine] was run?
A: 1.13 nM

Q: With `c1cc2ccn(-c3ccc(-c4nc[nH]n4)cn3)c2cn1` [Compound 41, 1-(5-(1H-1,2,4-triazol-3-yl)pyridin-2-yl)-1H-pyrrolo[2,3-c]pyridine] as the molecule, how does the Ki [2] read?
A: 8.8 nM

Q: For `Cn1ccc2cc(-n3ccc4ccncc43)ncc21` [Compound 19, 1′-methyl-1,5′-bi(1H-pyrrolo[2,3-c]pyridine)], which Ki [2] is on record?
A: 0.62 nM

Q: How did the Ki [2] turn out when `FCCOc1ccc2cc(-n3ccc4ccncc43)ncc2c1` [Compound 16, 7-(2-fluoroethoxy)-3-(1H-pyrrolo[2,3-c]pyridin-1-yl)isoquinoline] was run?
A: 0.41 nM

Q: With `Fc1cc2ccn(-c3cc4ccccc4cn3)c2cn1` [Compound 38, 3-(5-fluoro-1H-pyrrolo[2,3-c]pyridin-1-yl)isoquinoline] as the molecule, how does the Ki [2] read?
A: 52.3 nM

Q: With `FCOc1ccc2cnc(-n3ccc4ccncc43)cc2c1` [Compound 57] as the molecule, how does the Ki [2] read?
A: 1.23 nM

Q: How did the Ki [2] turn out when `CC#Cc1cnc(-n2ccc3ccncc32)cc1CF` [Compound 21, 1-(4-(fluoromethyl)-5-(prop-1-ynyl)pyridin-2-yl)-1H-pyrrolo[2,3-c]pyridine] was run?
A: 4.1 nM

Q: `Ic1ccc2cnc(-n3ccc4ccncc43)cc2c1` [Compound 20, 6-iodo-3-(1H-pyrrolo[2,3-c]pyridin-1-yl)isoquinoline] was tested. Which Ki [2] did it give?
A: 0.75 nM

Q: Which Ki [2] does the source give for `C=Cc1cc(-n2ccc3ccncc32)ncc1C#CCF` [Compound 30, 1-(5-(3-fluoroprop-1-ynyl)-4-vinylpyridin-2-yl)-1H-pyrrolo[2,3-c]pyridine] here?
A: 2.44 nM

Q: How did the Ki [2] turn out when `FCCn1ccc(-c2cnc(-n3ccc4ccncc43)nc2)n1` [Compound 29, 1-(5-(1-(2-fluoroethyl)-1H-pyrazol-3-yl)pyrimidin-2-yl)-1H-pyrrolo[2,3-c]pyridine] was run?
A: 2.41 nM

Q: `Fc1ccc2cnc(-n3ccc4ccncc43)nc2c1` [Compound 68] was tested. Which Ki [2] did it give?
A: 8.45 nM

Q: For `CNc1cc(-c2ccc(-n3ccc4ccncc43)nc2)ccn1` [Compound 93], which Ki [2] is on record?
A: 0.53 nM

Q: `Cn1ccc(-c2ccc(-n3ccc4ccncc43)nc2)n1` [Compound 63] was tested. Which Ki [2] did it give?
A: 2.84 nM

Q: With `FC1CCN(c2ccc(-n3ccc4ccncc43)nc2)CC1` [Compound 43, 1-(5-(4-fluoropiperidin-1-yl)pyridin-2-yl)-1H-pyrrolo[2,3-c]pyridine] as the molecule, how does the Ki [2] read?
A: 10 nM

Q: Which Ki [2] does the source give for `ClCCC1CCN(c2ccc(-n3ccc4ccncc43)nc2)CC1` [Compound 31, 1-(5-(4-(2-chloroethyl)piperidin-1-yl)pyridin-2-yl)-1H-pyrrolo[2,3-c]pyridine] here?
A: 2.88 nM

Q: With `Nc1cc(F)cc2cc(-n3ccc4ccncc43)ncc12` [Compound 112] as the molecule, how does the Ki [1] read?
A: 0.672 nM

Q: `CNc1ccc(-c2ccc(-n3ccc4ccncc43)nc2)cn1` [Compound 88] was tested. Which Ki [2] did it give?
A: 0.69 nM

Q: How did the Ki [2] turn out when `Fc1nccc2cnc(-n3ccc4ccncc43)cc12` [Compound 25, 1-fluoro-7-(1H-pyrrolo[2,3-c]pyridin-1-yl)-2,6-naphthyridine] was run?
A: 14.1 nM

Q: For `Fc1nc(-n2ccc3ccncc32)ccc1-c1cccnc1` [Compound 37, 1-(2-fluoro-3,3′-bipyridin-6-yl)-1H-pyrrolo[2,3-c]pyridine], which Ki [2] is on record?
A: 19.7 nM

Q: `OCCC1CCN(c2ccc(-n3ccc4ccncc43)nc2)CC1` [Compound 31-1, 2-(1-(6-(1H-pyrrolo[2,3-c]pyridin-1-yl)pyridin-3-yl)piperidin-4-yl)ethanol] was tested. Which Ki [2] did it give?
A: 3.54 nM

Q: How did the Ki [2] turn out when `c1ccc(-c2ccc(-n3ccc4ccncc43)nc2)nc1` [Compound 101] was run?
A: 1.14 nM

Q: `Nc1cccc2cnc(-n3ccc4ccnc(F)c43)cc12` [Compound 107] was tested. Which Ki [1] did it give?
A: 10000 nM

Q: For `CC#Cc1ccc(-n2ccc3ccncc32)nc1` [Compound 52], which Ki [2] is on record?
A: 0.98 nM

Q: `CC#Cc1cnc(-n2ccc3ccncc32)cc1F` [Compound 22, 1-(4-fluoro-5-(prop-1-ynyl)pyridin-2-yl)-1H-pyrrolo[2,3-c]pyridine] was tested. Which Ki [2] did it give?
A: 1.43 nM
